Results taken from PMC12655185 (Pharmaceuticals, 2025).
Where a SMILES comes first, the peptide text is derived from it. [ ]: non-standard residue; d: D form. The star is where a group is joined. X1 = O=C(O)CN1CCN(CC(=O)O)CCN([C@H](CCC(=O)*)C(=O)O)CC1; Sar = CNCC(=O)O

Tests used:
[1] = LogD7.4 determination (octanol/PBS); type: physicochemical; conditions: octanol / PBS pH 7.4
Method: The obtained solutions from ^67Ga labeling were diluted with water in a 1:1 ratio and brought to pH 7 using aqueous NaOH (1 M). For LogD7.4 determination, 10 μL of neutralized labeling solution was diluted with 290 μL 1× PBS (pH 7.4) and 300 μL 1-Octanol (both pre-saturated by each other). The mixture was vortexed vigorously for 30 s and subsequently centrifuged for 5 min at 16,100 rcf. Defined volumes of each layer (10 μL for PBS, 200 μL for Octanol) were taken and analyzed for their radioactivity (ISOMED 100, Nuvia, Frankfurt, Germany). The partition coefficient LogD7.4 was determined from the decadic logarithm of the fraction of the radioactivity content of the aqueous and octanol layers.

[2] = Stability in human serum (radio-HPLC, LC-MS); type: in vitro ADME; conditions: for remaining at 24 h: read-out: radioligand intact after 24 h in human serum
Method: For human serum stability investigation, 60 μL of the ^67Ga labeling mixture was mixed with 540 μL human serum and incubated at 37 °C. Aliquots of 25 μL were taken after 1, 2, 4 and 24 h. The aliquots were mixed with 75 μL of a mixture called “Supersol” (20% v/v EtOH, 0.5% Triton X-100, 5 mM EDTA, 0.5 mM o-phenantroline, and 0.1% saponine in water) and put on ice for 5 min. Subsequently, the mixtures were centrifuged at 16,100 rcf, 4 °C for 5 min. The supernatant was analyzed by analytical radio-HPLC. Serum half-lives were determined by non-linear regression according to one-phase decay. To determine the stability in labeling buffer, the labeling mixture was left at ambient temperature for 4 h. Subsequently, an aliquot of 5 μL was mixed with 45 μL of Supersol and analyzed with analytical radio-HPLC.
Analytical radio-HPLC was performed on a modular unit consisting of an operating unit (smartline manager 500, Knauer, Berlin, Germany), a pump unit (smartline pump 1000, Knauer, Berlin, Germany), a photo diode array detector (smartline PDA 2800, Knauer, Berlin, Germany) and a γ-detector (Ramona Star, Raytest, Lüttich, Belgium). The system was operated by the software Chromgate 2.8. Chromatography was conducted on a C18 column (Eurospher 100-5, 250 × 4 mm, Knauer, Berlin, Germany) at a flow rate of 1 mL/min.

human serum = conditions: up to 24 h

Row | logD [1] | remaining at 24 h ([2]; 37 °C) [%] | Compound | further results
1 | -4.79 ± 0.03 | 89 | CC[C@H](C)[C@H](NC(=O)[C@H](CC(N)=O)NC(=O)[C@@H]1CCCN1C(=O)[C@@H]1CCCN1C(=O)[C@H](CCCNC(=N)N)NC(=O)[C@H](CC(=O)O)NC(=O)[C@H](CC(N)=O)NC(=O)[C@@H](N)CO)C(=O)N[C@@H](CC(C)C)C(=O)N[C@@H](CCC(N)=O)C(=O)N[C@@H](CCCCN)C(=O)N[C@@H](CCCNC(=N)N)C(=O)N(C)CC(=O)N(C)CC(=O)N(C)CC(=O)N[C@@H](CCCCNC(=O)CC[C@H](C(=O)O)N1CCN(CC(=O)O)CCN(CC(=O)O)CC1)C(N)=O [TJ12P2(K^11)-X3K-[^67Ga]Ga-NODA-GA-CONH2, metal not drawn] (H-SNDRPPNILQKR[Sar][Sar][Sar]K(X1)-NH2) | 
2 |  |  | SNDRPPNILQQRXXXK(NODA-GA) | not cleaved (human serum; 37 °C): 95% still intact after 24 h
3 | -4.61 ± 0.05 | 95 | CC[C@H](C)[C@H](NC(=O)[C@H](CC(N)=O)NC(=O)[C@@H]1CCCN1C(=O)[C@@H]1CCCN1C(=O)[C@H](CCCNC(=N)N)NC(=O)[C@H](CC(=O)O)NC(=O)[C@H](CC(N)=O)NC(=O)[C@@H](N)CO)C(=O)N[C@@H](CC(C)C)C(=O)N[C@@H](CCC(N)=O)C(=O)N[C@@H](CCC(N)=O)C(=O)N[C@@H](CCCNC(=N)N)C(=O)N(C)CC(=O)N(C)CC(=O)N(C)CC(=O)N[C@@H](CCCCNC(=O)CC[C@H](C(=O)O)N1CCN(CC(=O)O)CCN(CC(=O)O)CC1)C(N)=O [TJ12P2(Q^11)-X3K-[^67Ga]Ga-NODA-GA-CONH2, metal not drawn] (H-SNDRPPNILQQR[Sar][Sar][Sar]K(X1)-NH2) | 
4 | -4.78 ± 0.05 |  | CC[C@H](C)[C@H](NC(=O)[C@H](CC(N)=O)NC(=O)[C@@H]1CCCN1C(=O)[C@@H]1CCCN1C(=O)[C@H](CCCNC(=N)N)NC(=O)[C@H](CC(=O)O)NC(=O)[C@H](CC(N)=O)NC(=O)[C@H](CO)NC(=O)CC[C@H](C(=O)O)N1CCN(CC(=O)O)CCN(CC(=O)O)CC1)C(=O)N[C@@H](CC(C)C)C(=O)N[C@@H](CCC(N)=O)C(=O)N[C@@H](CCCCN)C(=O)N[C@@H](CCCNC(=N)N)C(=O)O [[^67Ga]Ga-NODA-GA-TJ12P2(K^11), metal not drawn] (X1-SNDRPPNILQKR-OH) | remaining at 1 h ([2]; 37 °C, 1 h, read-out: radioligand intact after 1 h in human serum): 9.3%; half-life ([2]; human, serum, 37 °C, one-phase decay): 17.4 min; degradation product in human serum ([2]; radio-HPLC or LC-MS after 24 h): formation of a single metabolite
5 |  |  | SulfoCy3-SNDRPPNILQKR | cleaved bond (human serum): Lys11-arginine
6 | -4.79 ± 0.03 | 72 | CC[C@H](C)[C@H](NC(=O)[C@H](CC(N)=O)NC(=O)[C@@H]1CCCN1C(=O)[C@@H]1CCCN1C(=O)[C@H](CCCNC(=N)N)NC(=O)[C@H](CC(=O)O)NC(=O)[C@H](CC(N)=O)NC(=O)[C@H](CO)NC(=O)CC[C@H](C(=O)O)N1CCN(CC(=O)O)CCN(CC(=O)O)CC1)C(=O)N[C@@H](CC(C)C)C(=O)N[C@@H](CCC(N)=O)C(=O)N[C@@H](CCC(N)=O)C(=O)N[C@@H](CCCNC(=N)N)C(=O)O [[^67Ga]Ga-NODA-GA-TJ12P2(Q^11), metal not drawn] (X1-SNDRPPNILQQR-OH) | 
